These results are taken from patent publication US20210253560A1, “PLANT GROWTH REGULATING COMPOUNDS” (SYNGENTA PARTICIPATIONS AG, priority 2018, published 2021).

This test has as its system corn leaf. Kind of test: Dark induced senescence of corn leaf (leaf discs, image analysis). The class given is in vivo, corn (variety Multitop). Particulars: 100 μM-0.0001 μM, 23° C., up to 8 days, 12 replicates, read-out: IC50 for dark induced senescence of corn leaf (concentration at which 50% senescence was achieved). On the procedure:
It is known that strigolactones regulate (accelerate) leaf senescence, potentially through D14 receptor signaling. Compounds of the present invention (IA) were compared to structurally-related compounds (P) in a corn leaf dark induced senescence assay. Corn plants of variety Multitop were grown in a greenhouse with relative 75% humidity and at 23-25° C. for 6 weeks. 1.4 cm diameter leaf discs were placed into 24-well plates containing a test compounds in a concentration gradient (100 μM-0.0001 μM) at a final concentration of 0.5% DMSO. Each concentration was tested in 12 replicates. Plates were sealed with seal foil. The foil was pierced to provide gas exchange in each well. The plates were placed into the completely dark climatic chamber. Plates were incubated in the chamber with 75% humidity and at 23° C. for 8 days. On days 0, 5, 6, 7 and 8 photographs were taken of each plates, and image analysis conducted with a macro developed using the ImageJ software. The image analysis was used to determine the concentration at which 50% senescence was achieved (IC50), see Table 3. The lower the value, the higher senescence induction potency.

SMILES strings stand for the structures. Where two headings read alike, the source gives them in different places.

For `CC1=CC(OC=C2C(=O)N(CC#N)C3c4ccccc4CC23)OC1=O` (stereo not drawn) [Compound P1], the IC50 was 0.11 µM.
Same read-out and setting: in the case of `CC1=CC(OC=C2C(=O)N(CC#N)C3c4ccccc4CC23)OC1=O` (stereo not drawn) [Compound P2] it was 9.7 µM; in that of `CC1=CC(OC=C2C(=O)N(CC#N)C3c4ccccc4CC23)OC1=O` (stereo not drawn) [Compound P3], 7.2 µM.
The same measure, in the same setting: then `CC1=CC(OC=C2C(=O)N(CC#N)C3c4ccccc4CC23)OC1=O` (stereo not drawn) [Compound P4], with 2.47 µM.
On the same count and under the same terms, in the case of `CC1=CC(OC=C2C(=O)N(CC#N)C3c4ccccc4CC23)OC1=O` (stereo not drawn) [Compound P6-Z] it was 0.074 µM.
As for `CC(=O)N1C(=O)/C(=C/OC2OC(=O)C(C)=C2C)C2Cc3ccccc3C21` (stereo not drawn) [IA-1, (3E)-1-acetyl-3-[(3,4-dimethyl-5-oxo-2H-furan-2-yl)oxymethylene]-4,8b-dihydro-3aH-indeno[1,2-b]pyrrol-2-one], the IC50 (Zea mays, foliar, 192 h) worked out at 0.03 µM.
The same measure, in the same setting: then `CC1=C(C)C(O/C=C2/C(=O)N(c3ccccc3)C3c4ccccc4CC23)OC1=O` (stereo not drawn) [IA-8, (3E)-3-[(3,4-dimethyl-5-oxo-2H-furan-2-yl)oxymethylene]-1-phenyl-4,8b-dihydro-3aH-indeno[1,2-b]pyrrol-2-one], with 0.17 µM; and `CC1=C(C)C(O/C=C2/C(=O)N(CC#N)C3c4ccccc4CC23)OC1=O` (stereo not drawn) [IA-10-E], with 0.155 µM.
As for `CC1=C(C)C(O/C=C2\C(=O)N(CC#N)C3c4ccccc4CC23)OC1=O` (stereo not drawn) [IA-10-Z, 2-[(3Z)-3-[(3,4-dimethyl-5-oxo-2H-furan-2-yl)oxymethylene]-2-oxo-4,8b-dihydro-3aH-indeno[1,2-b]pyrrol-1-yl]acetonitrile], the IC50 (Zea mays, foliar, 192 h) was 0.07 µM.
